Measurements published in ChEMBL document CHEMBL1147055, “Noxious compounds activate TRPA1 ion channels through covalent modification of cysteines” (Nature, 2007).
The source made the active and inactive calls. No cut-off for these calls is given here.

Assays:
[1] = molecular target: Transient receptor potential cation channel subfamily A member 1 (Mus musculus) (UniProt Q8BLA8); assay: Reversal of activation of mouse TRPA1 expressed in HEK293T cells at 400 uM in presence of dithiothreitol by electrophysiology; assay type: cell-based; details: HEK-293T
Chain of Transient receptor potential cation channel subfamily A member 1 (Mus musculus) (Q8BLA8 whole entry): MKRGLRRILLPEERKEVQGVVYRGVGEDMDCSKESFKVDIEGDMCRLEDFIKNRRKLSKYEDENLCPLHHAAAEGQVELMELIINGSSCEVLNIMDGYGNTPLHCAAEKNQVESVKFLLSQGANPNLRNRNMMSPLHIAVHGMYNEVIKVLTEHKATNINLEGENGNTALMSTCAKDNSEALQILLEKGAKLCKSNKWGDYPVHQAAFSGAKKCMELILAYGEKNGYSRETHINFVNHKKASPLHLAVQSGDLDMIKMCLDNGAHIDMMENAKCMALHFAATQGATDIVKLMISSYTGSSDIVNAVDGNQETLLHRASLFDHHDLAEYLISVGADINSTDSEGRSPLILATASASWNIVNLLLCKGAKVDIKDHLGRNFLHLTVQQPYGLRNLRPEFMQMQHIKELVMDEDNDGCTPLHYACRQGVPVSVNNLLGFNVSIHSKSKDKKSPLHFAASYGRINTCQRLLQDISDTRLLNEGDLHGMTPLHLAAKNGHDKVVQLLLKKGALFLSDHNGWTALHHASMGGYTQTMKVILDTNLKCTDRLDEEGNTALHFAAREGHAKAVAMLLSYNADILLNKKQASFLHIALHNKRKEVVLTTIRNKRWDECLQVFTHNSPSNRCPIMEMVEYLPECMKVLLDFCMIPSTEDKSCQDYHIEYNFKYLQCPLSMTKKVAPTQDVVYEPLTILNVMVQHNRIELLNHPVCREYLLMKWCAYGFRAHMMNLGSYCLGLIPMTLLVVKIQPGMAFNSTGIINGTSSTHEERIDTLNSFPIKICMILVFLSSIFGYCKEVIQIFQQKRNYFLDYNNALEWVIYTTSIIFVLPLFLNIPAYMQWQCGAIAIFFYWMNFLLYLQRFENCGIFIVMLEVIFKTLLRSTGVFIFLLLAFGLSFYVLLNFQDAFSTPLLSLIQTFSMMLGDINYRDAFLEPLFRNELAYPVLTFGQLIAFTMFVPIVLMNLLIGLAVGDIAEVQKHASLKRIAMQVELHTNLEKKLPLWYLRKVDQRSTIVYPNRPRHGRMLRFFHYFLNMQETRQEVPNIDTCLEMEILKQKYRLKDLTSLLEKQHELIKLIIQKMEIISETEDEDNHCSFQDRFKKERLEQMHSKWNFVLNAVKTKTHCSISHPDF

[2] = molecular target: Transient receptor potential cation channel subfamily A member 1 (Mus musculus) (UniProt Q8BLA8); assay: Activation of mouse TRPA1 expressed in CHO cells assessed as increase in intracellular calcium level; assay type: cell-based
[3] = molecular target: Transient receptor potential cation channel subfamily A member 1 (Homo sapiens, UniProt O75762); assay: Activation of TRPA1
Chain of Transient receptor potential cation channel subfamily A member 1 (O75762 whole entry): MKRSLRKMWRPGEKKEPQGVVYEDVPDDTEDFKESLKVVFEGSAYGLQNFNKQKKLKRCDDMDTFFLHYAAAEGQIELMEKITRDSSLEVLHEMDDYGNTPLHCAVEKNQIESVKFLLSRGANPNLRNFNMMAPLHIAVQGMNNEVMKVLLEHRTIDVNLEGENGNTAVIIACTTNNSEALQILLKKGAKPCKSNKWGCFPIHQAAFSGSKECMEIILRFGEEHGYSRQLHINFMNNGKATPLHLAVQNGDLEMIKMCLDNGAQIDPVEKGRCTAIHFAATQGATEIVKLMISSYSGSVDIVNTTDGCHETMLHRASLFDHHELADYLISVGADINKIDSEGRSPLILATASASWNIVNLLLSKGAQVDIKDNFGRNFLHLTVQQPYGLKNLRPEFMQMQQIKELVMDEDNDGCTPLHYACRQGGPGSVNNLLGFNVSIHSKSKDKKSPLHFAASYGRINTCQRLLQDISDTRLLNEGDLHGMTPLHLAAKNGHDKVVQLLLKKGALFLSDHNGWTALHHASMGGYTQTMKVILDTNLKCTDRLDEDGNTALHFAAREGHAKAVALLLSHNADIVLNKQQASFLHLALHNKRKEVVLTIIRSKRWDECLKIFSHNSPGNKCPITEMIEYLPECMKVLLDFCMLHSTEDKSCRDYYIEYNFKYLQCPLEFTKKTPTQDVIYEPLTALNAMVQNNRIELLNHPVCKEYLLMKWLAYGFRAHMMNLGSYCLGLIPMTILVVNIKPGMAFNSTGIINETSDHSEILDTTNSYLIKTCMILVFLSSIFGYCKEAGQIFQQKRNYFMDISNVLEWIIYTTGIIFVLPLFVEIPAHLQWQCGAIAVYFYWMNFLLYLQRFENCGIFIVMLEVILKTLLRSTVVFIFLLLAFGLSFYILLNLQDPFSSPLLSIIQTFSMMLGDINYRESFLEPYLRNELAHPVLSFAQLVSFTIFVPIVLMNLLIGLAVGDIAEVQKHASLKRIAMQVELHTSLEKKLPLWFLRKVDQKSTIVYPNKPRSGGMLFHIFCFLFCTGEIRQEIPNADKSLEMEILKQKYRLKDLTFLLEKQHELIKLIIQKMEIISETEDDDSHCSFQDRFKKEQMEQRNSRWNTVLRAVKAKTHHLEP

[4] = molecular target: Transient receptor potential cation channel subfamily A member 1 (Mus musculus) (UniProt Q8BLA8); assay: Activation of mouse TRPA1 expressed in CHO cells at 100 uM by calcium imaging FLIPR assay; assay type: cell-based
[5] = molecular target: Transient receptor potential cation channel subfamily A member 1 (Mus musculus) (UniProt Q8BLA8); assay: Binding affinity to mouse TRPA1 expressed in HEK293T cells at 100 uM assessed as covalent protein modification; assay type: cell-based; details: HEK-293T
[6] = molecular target: Transient receptor potential cation channel subfamily A member 1 (Mus musculus) (UniProt Q8BLA8); assay: Activation of mouse TRPA1 expressed in HEK293T cells at 100 uM assessed as activation of cation conductance by electrophysiology; assay type: cell-based; details: HEK-293T
[7] = molecular target: Transient receptor potential cation channel subfamily A member 1 (Mus musculus) (UniProt Q8BLA8); assay: Activation of mouse TRPA1 expressed in HEK293T cells at 50 uM in presence of dithiothreitol by electrophysiology; assay type: cell-based; details: HEK-293T
[8] = molecular target: Transient receptor potential cation channel subfamily A member 1 (Mus musculus) (UniProt Q8BLA8); assay: Activation of mouse TRPA1 expressed in HEK293T cells at 50 uM assessed as activation of cation conductance by electrophysiology; assay type: cell-based; details: HEK-293T
[9] = test system: Transient receptor potential cation channel subfamily A member 1 (Mus musculus), Q8BLA8 [C622S]; assay: Activation of mouse TRPA1 C622S mutant expressed in CHO cells at 100 uM by calcium imaging FLIPR assay; assay type: cell-based
Chain of Transient receptor potential cation channel subfamily A member 1 (Mus musculus), Q8BLA8 [C622S] (Q8BLA8 whole entry C622S): as the sequence (Q8BLA8 whole entry) above, with C622S counted along it

[10] = test system: Transient receptor potential cation channel subfamily A member 1 (Mus musculus), Q8BLA8 [C415S]; assay: Activation of mouse TRPA1 C415S mutant expressed in CHO cells at 100 uM by calcium imaging FLIPR assay; assay type: cell-based
Chain of Transient receptor potential cation channel subfamily A member 1 (Mus musculus), Q8BLA8 [C415S] (Q8BLA8 whole entry C415S): as the sequence (Q8BLA8 whole entry) above, with C415S counted along it

[11] = test system: Transient receptor potential cation channel subfamily A member 1 (Mus musculus), Q8BLA8 [C422S]; assay: Activation of mouse TRPA1 C422S mutant expressed in CHO cells at 100 uM by calcium imaging FLIPR assay; assay type: cell-based
Chain of Transient receptor potential cation channel subfamily A member 1 (Mus musculus), Q8BLA8 [C422S] (Q8BLA8 whole entry C422S): as the sequence (Q8BLA8 whole entry) above, with C422S counted along it

[12] = molecular target: Transient receptor potential cation channel subfamily A member 1 (Mus musculus) (UniProt Q8BLA8); assay: Activation of mouse TRPA1 expressed in HEK293T cells at 30 uM assessed as activation of cation conductance by electrophysiology; assay type: cell-based; details: HEK-293T

Q: For `CS(=O)(=O)SCCN`, which Activity [1] is on record?
A: Active

Q: What about the Activity [2] of the same compound?
A: Active

Q: And the EC50 [3]?
A: 1.58 µM

Q: How did the Activity [4] turn out when `O=C1CCC(=O)N1O` was run?
A: inactive

Q: For `C#CCN=C=S` [PROPARGYL ISOTHIOCYANATE], which Activity [5] is on record?
A: Active

Q: And the EC50 [3]?
A: 18.4 µM

Q: Which Activity [3] does the source give for `CC(=O)CC1(O)C(=O)N(C)c2ccccc21` (stereo not drawn) here?
A: inactive

Q: With `C#CCN1C(=O)/C(=C/C(C)=O)c2ccccc21` as the compound, how does the Activity [5] read?
A: Active

Q: What about the EC50 [3] of the same compound?
A: 0.1 µM

Q: `CCC=O` was tested. Which Activity [3] did it give?
A: inactive

Q: For `O=C1NC(c2cccc([N+](=O)[O-])c2)=CCN1c1ccccc1O`, which Activity [6] is on record?
A: Active

Q: What does the source list for `CC(=O)/C=C1/C(=O)N(C)c2ccccc21`?
A: Activity [7]: Active; Activity [2]: Active; Activity [8]: Active; EC50 [3]: 0.8 µM

Q: Which EC50 [3] does the source give for `CC/C=C/C=O` [PENTENAL] here?
A: 5 µM

Q: For `NC(=O)CI` [IODOACETAMIDE], which Activity [2] is on record?
A: Active

Q: And the EC50 [3]?
A: 357 µM

Q: Which EC50 [3] does the source give for `C=CC=O` [ACROLEIN] here?
A: 5 µM

Q: How did the Activity [9] turn out when `O=C/C=C/c1ccccc1` was run?
A: inactive

Q: And the Activity [10]?
A: inactive

Q: What about the EC50 [3] of the same compound?
A: 19 µM

Q: And the Activity [11]?
A: inactive

Q: Which Activity [3] does the source give for `OC/C=C/c1ccccc1` here?
A: inactive

Q: What does the source list for `C=CCN=C=S`?
A: Activity [12]: Active; Activity [2]: Active

Q: How did the Activity [5] turn out when `C#CCCCCNC(=O)CI` [IODOACETAMIDE ALKYNE] was run?
A: Active

Q: What about the EC50 [3] of the same compound?
A: 134 µM
